Assays:
Type in all cases: cell-based
MOLT-4 cells = test: MOLT-4 Cell Proliferation Assay (CellTiter-Glo Luminescent Cell Viability Assay); conditions: Homo sapiens, 72 h incubation, read-out: MOLT-4 (nM) CTG IC50
Procedure: Cell proliferation was measured using the CellTiter-Glo® Luminescent Cell Viability Assay. The assay involved the addition of a single reagent (CellTiter-Glo® Reagent) directly to cells cultured in serum-supplemented medium. MOLT-4 cells (ATCC, CRL-1582) were cultured according to ATCC recommendations and were seeded at 50,000 cells per well.
Each compound evaluated was prepared as a DMSO stock solution (10 mM). Compounds were tested in duplicate on each plate, with a 10-point serial dilution curve (1:3 dilution). The highest compound concentration was 10 μM (final), with a 0.1% final DMSO concentration. Plates were then incubated at 37° C., 5% CO2 for 72 h, cell plates were equilibrated at rt for approximately 30 mins. An equi-volume amount of CellTiter-Glo® Reagent (100 μL) was added to each well. Plates were mixed for 2 mins on an orbital shaker to induce cell lysis and then incubated at rt for 10 mins to stabilize the luminescent signal. Luminescence was recorded using a Envision plate reader according to CellTiter-Glo protocol. IC50 of each compound was calculated using GraphPad Prism by nonlinear regression analysis.

Bcl-xL [1] = biological target: T1, Bcl-xL (Homo sapiens, UniProt Q07817); test: Protein degradation assay in MOLT-4 cells (Western blot); design: host or cells: MOLT-4; conditions: 100 nM compound, 16 hours, FIGS. 4 and 5
Procedure: (§1) MOLT-4 (ATCC, CRL-1582) (FIGS. 4, 5) were incubated with vehicle or 100 nM concentrations of the indicated compounds for 16 hours. MOLM-13 (DSMZ, ACC554) (FIG. 6,7) cells were incubated with vehicle or increasing concentrations of the indicated compound for 24 hours. For proteasome inhibition, MOLM-13 cells were pretreated with 1 μM of MG132 for 1 hour before the addition of 1 μM of the indicated compounds. After treatment, the cells were harvested in RIPA lysis buffer supplemented with 1% Phosphatase Inhibitor and Protease Inhibitor Cocktail. An equal amount of protein (10 μg/lane) from each cell extract was resolved on a 4-12% Bis-Tris gel. Proteins were transferred using iBlot 2 Transfer Stacks. The membranes were blocked with 5% nonfat milk in TBS-T buffer (50 mM Tris-HCL, pH 7.6; 150 mM NaCl; and 0.05% Tween) and probed with primary antibodies (1:1000 dilution) overnight at 4° C. After three washes with TBS-T (10 min/wash), the membranes were incubated with an appropriate peroxidase-conjugated secondary antibody (Cell Signaling Technology, USA) for 1 hour at rt. After three washes with TBS-T, the proteins of interest were detected with ECL Western Blotting Detection Reagents and captured with an Azure imaging system. The band intensities were determined using ImageJ software and normalized to loading control β-actin or GAPDH. The primary antibodies Bcl-xL (#2762), Bcl-2 (#2872s), Mcl-1 (#5453s) and β-actin (13E5, #4970), and GAPDH (#5174) were purchased from Cell Signaling Technology.

Bcl-xL [2] = biological target: T1, Bcl-xL; test: Protein degradation assay in MOLM-13 cells (Western blot); conditions: for Bcl-xL degradation in MOLM-13 cells: increasing concentrations, 24 hours, FIG. 6; for Bcl-xL degradation with proteasome inhibitor MG132 in MOLM-13 cells: pretreated with 1 μM MG132 for 1 hour, then 1 μM compound, FIG. 7
Procedure: as §1

T1 sequence (Q07817 whole entry): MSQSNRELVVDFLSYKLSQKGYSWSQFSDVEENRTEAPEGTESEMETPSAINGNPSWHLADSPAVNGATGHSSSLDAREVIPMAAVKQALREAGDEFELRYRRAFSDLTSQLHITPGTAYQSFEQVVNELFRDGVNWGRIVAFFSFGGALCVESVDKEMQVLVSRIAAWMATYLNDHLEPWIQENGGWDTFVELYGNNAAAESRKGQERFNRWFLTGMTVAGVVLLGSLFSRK

Compound	IC50 (MOLT-4 cells) [nM]	Bcl-xL degradation in MOLT-4 cells (Bcl-xL [1])	Bcl-xL degradation in MOLM-13 cells (Bcl-xL [2])	Bcl-xL degradation with proteasome inhibitor MG132 in MOLM-13 cells (Bcl-xL [2])
CC1(C)CCC(c2ccc(Cl)cc2)=C(CN2CCN(c3ccc(C(=O)NS(=O)(=O)c4ccc(N[C@H](CCN5CCOCC5)CSc5ccccc5)c(S(=O)(=O)C(F)(F)F)c4)cc3)CC2)C1 [ABT-263, reference compound]	100 to 200			
CC1(C)CCC(CN2CCN(c3ccc(C(=O)NS(=O)(=O)c4ccc(N[C@H](CCN5CCN(C(=O)NCCOCCOCCNc6cccc7c6C(=O)N(C6CCC(=O)NC6=O)C7=O)CC5)CSc5ccccc5)c(S(=O)(=O)C(F)(F)F)c4)cc3)CC2)=C(C23CC(C(F)F)(C2)C3)C1 (stereo partly drawn) [Example 1, 4-((R)-3-((4-(N-(4-(4-((2-(3-(difluoromethyl)bicyclo[1.1.1]pentan-1-yl)-4,4-dimethylcyclohex-1-en-1-yl)methyl)piperazin-1-yl)benzoyl)sulfamoyl)-2-((trifluoromethyl)sulfonyl)phenyl)amino)-4-(phenylthio)butyl)-N-(2-(2-(2-((2-(2,6-dioxopiperidin-3-yl)-1,3-dioxoisoindolin-4-yl)amino)ethoxy)ethoxy)ethyl)piperazine-1-carboxamide]	≥ 200			
CC1(C)CCC(CN2CCN(c3ccc(C(=O)NS(=O)(=O)c4ccc(N[C@H](CCN5CCN(CCOCCNc6cccc7c6C(=O)N(C6CCC(=O)NC6=O)C7=O)CC5)CSc5ccccc5)c(S(=O)(=O)C(F)(F)F)c4)cc3)CC2)=C(C23CC(C(F)F)(C2)C3)C1 (stereo partly drawn) [Example 2, 4-(4-((2-(3-(Difluoromethyl)bicyclo[1.1.1]pentan-1-yl)-4,4-dimethylcyclohex-1-en-1-yl)methyl)piperazin-1-yl)-N-((4-(((2R)-4-(4-(2-(2-((2-(2,6-dioxopiperidin-3-yl)-1,3-dioxoisoindolin-4-yl)amino)ethoxy)ethyl)piperazin-1-yl)-1-(phenylthio)butan-2-yl)amino)-3-((trifluoromethyl)sulfonyl)phenyl)sulfonyl)benzamide]	≤ 100	induce Bcl-xL degradation	can induce Bcl-xL degradation in MOLM-13 cells in a dose dependent manner	can be inhibited by proteasome inhibitor MG132
CC1(C)CCC(CN2CCN(c3ccc(C(=O)NS(=O)(=O)c4ccc(N[C@H](CCN5CCN(CCOCCOCCNc6cccc7c6C(=O)N(C6CCC(=O)NC6=O)C7=O)CC5)CSc5ccccc5)c(S(=O)(=O)C(F)(F)F)c4)cc3)CC2)=C(C23CC(C(F)F)(C2)C3)C1 (stereo partly shown) [Example 3]			can induce Bcl-xL degradation in MOLM-13 cells in a dose dependent manner	can be inhibited by proteasome inhibitor MG132

The next lines start with results.

IC50 (MOLT-4 cells) [nM]	Bcl-xL degradation in MOLT-4 cells (Bcl-xL [1])	Compound	Bcl-xL degradation in MOLM-13 cells (Bcl-xL [2])	Bcl-xL degradation with proteasome inhibitor MG132 in MOLM-13 cells (Bcl-xL [2])
≤ 100	induce Bcl-xL degradation	CC1(C)CCC(CN2CCN(c3ccc(C(=O)NS(=O)(=O)c4ccc(N[C@H](CCN5CCN(CCOCCOCCOCCNc6cccc7c6C(=O)N(C6CCC(=O)NC6=O)C7=O)CC5)CSc5ccccc5)c(S(=O)(=O)C(F)(F)F)c4)cc3)CC2)=C(C23CC(C(F)F)(C2)C3)C1 (stereo partly drawn) [Example 4, 4-(4-((2-(3-(difluoromethyl)bicyclo[1.1.1]pentan-1-yl)-4,4-dimethylcyclohex-1-en-1-yl)methyl)piperazin-1-yl)-N-((4-(((2R)-4-(4-(2-(2-(2-(2-((2-(2,6-dioxopiperidin-3-yl)-1,3-dioxoisoindolin-4-yl)amino)ethoxy)ethoxy)ethoxy)ethyl)piperazin-1-yl)-1-(phenylthio)butan-2-yl)amino)-3-((trifluoromethyl)sulfonyl)phenyl)sulfonyl)benzamide]		can be inhibited by proteasome inhibitor MG132
100 to 200	induce Bcl-xL degradation	CC1(C)CCC(CN2CCN(c3ccc(C(=O)NS(=O)(=O)c4ccc(N[C@H](CCN5CCC(C(=O)NCCOCCOCCNc6cccc7c6C(=O)N(C6CCC(=O)NC6=O)C7=O)CC5)CSc5ccccc5)c(S(=O)(=O)C(F)(F)F)c4)cc3)CC2)=C(C23CC(C(F)F)(C2)C3)C1 (stereo partly drawn) [Example 5, 1-((R)-3-((4-(N-(4-(4-((2-(3-(difluoromethyl)bicyclo[1.1.1]pentan-1-yl)-4,4-dimethylcyclohex-1-en-1-yl)methyl)piperazin-1-yl)benzoyl)sulfamoyl)-2-((trifluoromethyl)sulfonyl)phenyl)amino)-4-(phenylthio)butyl)-N-(2-(2-(2-((2-(2,6-dioxopiperidin-3-yl)-1,3-dioxoisoindolin-4-yl)amino)ethoxy)ethoxy)ethyl)piperidine-4-carboxamide]		
≤ 100	induce Bcl-xL degradation	CC1(C)CCC(CN2CCN(c3ccc(C(=O)NS(=O)(=O)c4ccc(N[C@H](CCN5CCN(CCOCCNc6ccc7c(c6)C(=O)N(C6CCC(=O)NC6=O)C7=O)CC5)CSc5ccccc5)c(S(=O)(=O)C(F)(F)F)c4)cc3)CC2)=C(C23CC(C(F)F)(C2)C3)C1 (stereo partly drawn) [Example 6, 4-(4-((2-(3-(Difluoromethyl)bicyclo[1.1.1]pentan-1-yl)-4,4-dimethylcyclohex-1-en-1-yl)methyl)piperazin-1-yl)-N-((4-(((2R)-4-(4-(2-(2-((2-(2,6-dioxopiperidin-3-yl)-1,3-dioxoisoindolin-5-yl)amino)ethoxy)ethyl)piperazin-1-yl)-1-(phenylthio)butan-2-yl)amino)-3-((trifluoromethyl)sulfonyl)phenyl)sulfonyl)benzamide]		
≤ 100	induce Bcl-xL degradation	CC1(C)CCC(CN2CCN(c3ccc(C(=O)NS(=O)(=O)c4ccc(N[C@H](CCN5CCN(CCOCCNc6cccc7c6C(=O)N(C6CCC(=O)NC6=O)C7=O)CC5)CSc5ccccc5)c(S(=O)(=O)C(F)(F)F)c4)cc3)CC2)=C(C23CC(C)(C2)C3)C1 (stereo partly drawn) [Example 9, 4-(4-((4,4-Dimethyl-2-(3-methylbicyclo[1.1.1]pentan-1-yl)cyclohex-1-en-1-yl)methyl)piperazin-1-yl)-N-((4-(((2R)-4-(4-(2-(2-((2-(2,6-dioxopiperidin-3-yl)-1,3-dioxoisoindolin-4-yl)amino)ethoxy)ethyl)piperazin-1-yl)-1-(phenylthio)butan-2-yl)amino)-3-((trifluoromethyl)sulfonyl)phenyl)sulfonyl)benzamide]		
≤ 100	induce Bcl-xL degradation	CC1(C)CCC(CN2CCN(c3ccc(C(=O)NS(=O)(=O)c4ccc(N[C@H](CCN5CCN(CCOCCOCCOCCNc6cccc7c6C(=O)N(C6CCC(=O)NC6=O)C7=O)CC5)CSc5ccccc5)c(S(=O)(=O)C(F)(F)F)c4)cc3)CC2)=C(C23CC(C)(C2)C3)C1 (stereo partly drawn) [Example 10, 4-(4-((4,4-dimethyl-2-(3-methylbicyclo[1.1.1]pentan-1-yl)cyclohex-1-en-1-yl)methyl)piperazin-1-yl)-N-((4-(((2R)-4-(4-(2-(2-(2-(2-((2-(2,6-dioxopiperidin-3-yl)-1,3-dioxoisoindolin-4-yl)amino)ethoxy)ethoxy)ethoxy)ethyl)piperazin-1-yl)-1-(phenylthio)butan-2-yl)amino)-3-((trifluoromethyl)sulfonyl)phenyl)sulfonyl)benzamide]		
